Source: article PMC12042267, “Expanding the Family of Monosubstituted 15-Membered Pyridine-Based Macrocyclic Ligands for Mn(II) Complexation in the Context of MRI” (Inorganic Chemistry, 2025)

Legend:
[1] = Dissociation kinetics of Mn(II) complexes, transmetalation with Zn(II) (T2 relaxation); format: physicochemical
Procedure: The transmetalation reaction of MnL2 and MnL3 (1.4 mM) was monitored in the presence of 10, 20, 30, and 40 mol equiv of Zn(II) ions, by measuring water proton T2 relaxation times (60 MHz) as a function of time at 25 °C and in 0.15 M NaCl, in the pH range 4.9–6.0 (4.9, 5.0, 5.2, 5.5, and 6.0). To control pH, 50 mM N-methyl-piperazine (pH 4.9–5.5) or 50 mM MES (2-(4-morpholino)ethane-sulfonic acid) buffer (pH 5.7–6.0) was used. Transmetalation of MnL2 (0.3 mM) was also investigated in the presence of 10, 20, 30, and 40 mol equiv of Cu(II) ions, by monitoring the UV–vis absorbance at 274.0 nm as a function of time at 25 °C and in 0.15 M NaCl, in the pH range 4.7–5.0 (in 75 mM 1,4-dimethyl piperazine (DMP) buffer). No oxidation of the samples was observed. The program OriginPro 9 was used for the fitting of experimental data.
The dissociation kinetics was followed through monitoring Mn(II) release by water proton T2 measurements, at pH […], in the presence of 10- to 40-fold excess of Zn(II) and through UV–vis measurements in the presence of 10- to 40-fold excess of Cu(II) at pH 4.7–5.0 (only for MnL2). The observed dissociation rate constants, kobs, increase with increasing H^+ ion concentration (Figures 4, left and S20). They remain independent of Zn(II) concentration (Figures S18 and S19), but do show dependence on Cu(II) concentration (Figure S21).
In excess of the exchanging metal ion, the reaction is of pseudo-first order, and the rate is proportional to the total MnL2 or MnL3 concentration (eq 1), where kobs is the pseudo-first-order rate constant. [drawing 4] 1 In general, different dissociation pathways can coexist, implying the participation of protons and/or the exchanging metal ion,[47] as illustrated in Figure 5.
Based on this scheme, the overall rate for either Zn(II) or Cu(II) transmetalation can be given by eq 2, where M = Zn^2+ or Cu^2+ (for clarity, charges of the complexes are omitted). [drawing 5] 2 Here, the first and second terms correspond to the spontaneous dissociation of the nonprotonated and the monoprotonated complexes, respectively, the third term describes the proton-assisted dissociation of the monoprotonated complex, and the last two terms refer to the spontaneous dissociation of the dinuclear complex and metal-assisted dissociation of the monoprotonated MnL2 or MnL3 complex. [MnL]tot describes the total concentration of Mn(II) chelates ([MnL]tot = [MnL] + [MnHL] + [ZnLMn]). Since no obvious Zn(II) dependence (for any of the two systems) was observed, only the spontaneous and proton-assisted dissociation pathways were taken into consideration. Consequently, the observed rate constants can be expressed as in eq 3 with k0 = kMnL, k1 = kMnHL·KMnHL, and k2 = ^HkMnHL·KMnHL. [drawing 6] 3 The kobs rate constants were fitted to eq 3, and the calculated parameters are listed in Table 5 for the Zn(II) exchange. During the fitting procedure, KMnHL was fixed to the value obtained from the pH-potentiometric titrations.

[2] = Cyclic voltammetry of Mn(II) complexes in aqueous solution; format: physicochemical; conditions: aqueous 0.15 M KCl; for ΔE (peak separation): 100 mV s^–1; for Eox (oxidation peak) / Ered (reduction peak): 100 mV s^–1 scan rate; for Eox (oxidation peak) / Ered (reduction peak) / E1/2: vs Ag/AgCl
Procedure: All solvents (VWR International, Penta) and chemicals were purchased from commercial sources (Acros Organics, Merck) and used as received. 2-(Chloromethyl)pyridine hydrochloride and 2-(chloromethyl)benzimidazole were prepared according to the previously described procedures.[31],[32] The parent ligand 15-pyN3O2 was synthesized as previously described in the literature.[28],[33] Mass spectra were collected using an LCQ Fleet mass spectrometer (Thermo Scientific, Waltham, MA) equipped with an electrospray ion source and a three-dimensional (3D) ion-trap detector in the positive/negative mode (see SI, Figures S1 and S2). ^1H and ^13C NMR spectra were obtained using a 400-MR NMR spectrometer (Varian, Palo, Alto, CA) at 25 °C. The multiplicity of the signals is indicated as follows: s, singlet; d, doublet; t, triplet; m, multiplet; and bs, broad singlet. Deuterated solvent chloroform-d (99.9% of D) was purchased from Sigma-Aldrich and used as received. The atom numbering schemes used for the interpretation of NMR data are shown in Scheme 2. The carbon and hydrogen atoms were assigned according to the spectra obtained from the two-dimensional correlation experiments ^1H–^1H gs-COSY, ^1H–^13C gs-HMQC, and ^1H–^13C gs-HMBC (see SI, Figures S3–S10). Cyclic voltammetry was performed on a CHI600C electrochemical analyzer (CH Instruments, Inc., Austin, TX). IR spectra were measured on a Jasco FT/IR-4700 spectrometer (Jasco, Easton, MD) using the ATR technique on a diamond plate in the spectral range 4000–400 cm^–1 (see SI Figure S11). A conventional electrochemical three-electrode-type cell with a glassy carbon working electrode, a platinum wire auxiliary electrode, and either Ag/Ag^+ reference electrode (0.01 M AgNO3 in 0.1 M tetrabutylammonium perchlorate (TBAP) in CH3CN) or Ag/AgCl reference electrode filled with 3 M KCl solution was used during the measurements with the scan rate of 100 mV s^–1. The measurements were performed in an argon atmosphere either in 0.1 M TBAP solution in CH3CN or in 0.15 M aqueous solution of KCl as a supporting electrolyte with a scan rate of 100 mV s^–1 and at 1.5 mM concentration of the complexes. The internal ferrocene/ferrocenium standard (E1/2 = 0.459 V vs Ag/Ag^+ electrode, ΔE = 77 mV) was employed for measurements in CH3CN.
Thus, we carried out CV experiments on an aqueous solution of the Mn(II) complexes in 0.15 M KCl. […] The cyclic voltammogram of MnL3 is similar, showing an oxidation peak at Eox = +1004 mV and a reduction peak at Ered = 782 mV (E1/2 = 893 mV vs Ag/AgCl, ΔE = 222 mV) (Figure S23). The large separation between the oxidation and reduction peaks (ΔE) is characteristic of a quasi-reversible system. The irreversibility of the Mn(II)/Mn(III) redox process is quite common due to the lack of ligand-field stabilization for the high-spin d^5 configuration of Mn(II), with a consequent large inner-sphere contribution to electron transfer.[57] Even larger separation between the oxidation and reduction peaks was observed when the complexes were measured in acetonitrile (Figures S24 and S25 in SI).

[3] = fixed during the fitting procedure ref 28; cited from earlier work
[4] = Zn(II) transmetalation, 25 °C, 0.15 M NaCl, pH 4.9–6.0

dissociation half-life t1/2 ([1]; Mn(II) complex, t1/2 = ln 2/kobs calculated for pH 7.4, Zn(II))	ΔE (peak separation) [2]	Eox (oxidation peak) [2]	Ered (reduction peak) [2]	E1/2 [2]	SMILES	k0 (spontaneous dissociation of the nonprotonated complex) [1, 4]	k2 (proton-assisted dissociation of the monoprotonated complex) [1, 4]	AO/ℏ (scalar coupling constant) [3]
10.4 min	144 mV	+994 mV	+850 mV	922 mV	O.[Mn+2].c1ccc(CN2CCOCCOCCNCc3cccc(n3)C2)nc1 [MnL2]	(1.1 ± 0.3) × 10^–3 s^–1	(4.5 ± 0.8) × 10^7 M^–2 s^–1	38.6 ^e 10^6 rad s^–1
–	222 mV	+1004 mV	782 mV	893 mV	O.[Mn+2].c1cc2nc(c1)CN(Cc1nc3ccccc3[nH]1)CCOCCOCCNC2 [MnL3]	(1.9 ± 0.3) × 10^–3 s^–1	–	38.6 ^e 10^6 rad s^–1
